# Experimental data taken from patent US6339075B1, “Use of dextran and other polysaccharides to improve mucus clearance” (The University of British Columbia, priority 1997, dated 2002).
# Test system: healthy mongrel dogs
# Assay: Arginine aerosol with or without dextran in anaesthetized dogs: PD, TMV, mucus rigidity
# Assay type: in vivo, dog
# Procedure: Arginine/arg. HCl was prepared as described by Solomons (Pediatrics 1971;47:384), making a stock solution of 290 mOsm, pH 7.4. Two dilutions were prepared, 97 and 29 mOsm, the balance being Ringers. The solutions were delivered by Pari jet nebulizer to 8 healthy mongrel dogs anaesthetized with pentobarbital and intubated. After 30 min. Ringer aerosol, tracheal mucus velocity (TMV by charcoal particle transport) and potential difference (PD by agar bridge) were measured under bronchoscopic control, and mucus for viscoelasticity analysis (magnetic rheometer) was collected on the endotracheal tube. On one occasion, increasing arginine conc. were aerosolized hourly, following Ringer control. On a second occasion, the same arginine solutions were used, but with 65 mg/ml low m. w. dextran (Polydex, lot #2764) added.
smiles,measurement,setting,value
"N=C(N)NCCC[C@H](N)C(=O)O [arginine, L-arginine]",TMV,"arginine aerosol with or without dextran, increased nonsignificantly from 11.9±2.2 (Ringer)",14.7±2.9 mm/min
same,mucus rigidity (log G*) decreased,arginine aerosol without dextran,not
same,lumen-negative PD,"increasing arginine aerosol, with or without added dextran 65 mg/ml, Ringer −14.3±1.4 mV",−20.1±3.6 mV
